Experimental data reported in paper PMC7180984, “A Hydrophilic Interaction Liquid Chromatography–Tandem Mass Spectrometry Quantitative Method for Determination of Baricitinib in Plasma, and Its Application in a Pharmacokinetic Study in Rats” (Molecules, 2020).
Read-outs that look alike come from different tables or passages of the source. Blank lines part the entries; values can stand above or below the molecule they belong to.

Key:
[1] = set-up: method as in PMID 24965573; settings: cited from earlier work
CYP3A4 enzyme = system: CYP3A4 enzyme; set-up: method as in PMID 30907116; settings: cited from earlier work
[2] = set-up: method as in earlier work; settings: pre-clinical animal studies, at higher dosages; cited from earlier work
[3] = system: multidrug and toxic extrusion protein (MATE) 2-K; set-up: method as in PMID 30907116; settings: cited from earlier work
[4] = cited from earlier work
[5] = Stability of quality control samples in rat plasma; format: in vitro ADME; settings: n = 6
Protocol: […] Baracitinib stability was evaluated after three freeze-thaw cycles, storage at room temperature (23–25 °C) for 6 h (short term stability), and subsequent storage for eight weeks at −80 °C (long term stability). Moreover, the stability of stock and working solutions of baricitinib and the IS at room temperature for 6 h (23–25 °C) and at refrigerator (2–8 °C) for 12 days was tested.

[6] = system: breast cancer resistance protein (BCRP); set-up: method as in PMID 30907116; settings: cited from earlier work
[7] = cited from earlier work; remark: listed apart in the source
[8] = Pharmacokinetic study in rats after oral administration of baricitinib suspension; format: in vivo, Sprague Dawely rats
Protocol: Sample analysis was performed on an Acquity TQD UPLC-MS/MS system (Waters Co., Milford, MA, USA). The triple quadrupole mass spectrometer was operated in the MRM mode, and detection was carried out using electrospray ionization (ESI) in the positive ion mode. In addition, the mass spectrometry parameters including parent to daughter ion transition, collision energy, cone voltage, and dwell time were optimized to determine the analyte and IS (Table 5). The collision gas (argon) flow rate was kept at 0.1 mL/min and the desolvation gas (nitrogen) flow rate was optimized to 600 L/h. […] The flow rate was 0.2 mL/min.
Baricitinib and IS were extracted from rat plasma using liquid–liquid extraction. 20 µL of irbesartan working solution (20 µg/mL) was added to 100 µL plasma samples. After vortex-mixing for 20 s, 1 mL of n-hexane:dichlromethane mixture (1:1) was added. Samples were then mixed for 1 min and centrifuged for 5 min at 5600× g. The supernatant (0.8 mL) was transferred to a 5-mL tube and evaporated to dryness at 40 °C. Residues were reconstituted in 100 µL of the mobile phase and 5 µL was injected into the LC-MS/MS system.
Sprague Dawely rats weighing 200–230 g were obtained from the animal house at the National Organization for Drug Control and Research, Giza, Egypt. Rats were fed standard sufficient food and water and experiments were performed under the Guide for Care and Use of laboratory animals. experimental protocols were approved by the ethics committee of the Faculty of Pharmacy at Al-Azhar University, Cairo, Egypt (no. 206).
Baricitinib was used to create a suspension using 1% carboxymethyl cellulose. Following overnight fasting, the drug was administered in a dose of 2 mg/10 mL/kg. Blood samples (approximately 0.25 mL) were then collected from the retro-orbital plexus into heparinized tubes at 0.0, 0.25, 0.5, 0.75, 1.0, 1.25, 2.0, 3.0, 5.0, 7.0, 9.0, and 11.0 h post-dosing. Plasma samples were obtained by centrifuging the blood at 4250× g for 5 min and stored frozen at −80 °C until analysis. The pharmacokinetic parameters Cmax, tmax, AUC, t½, and Kel were calculated using WinNonlin software.

[9] = Stability of working solutions; format: physicochemical
Protocol: Stability of the analyte was assessed using five measurements of QC samples at low and high concentrations after exposure to different conditions of storage and processing temperature. Baracitinib stability was evaluated after three freeze-thaw cycles, storage at room temperature (23–25 °C) for 6 h (short term stability), and subsequent storage for eight weeks at −80 °C (long term stability). […]

P-glycoprotein (Pgp) = system: P-glycoprotein (Pgp); set-up: method as in PMID 30907116; settings: cited from earlier work
[10] = system: organic anionic transporter (OAT) 3; set-up: method as in PMID 30907116; settings: cited from earlier work
[11] = Auto-sampler, nominal 40.0 ng/mL
[12] = Auto-sampler, nominal 400.0 ng/mL
[13] = Bench top (6 h), nominal 400.0 ng/mL
[14] = Long term (at −80 °C for 8 weeks), nominal 40.0 ng/mL
[15] = Long term (at −80 °C for 8 weeks), nominal 400.0 ng/mL
[16] = Thaw/freeze (3 cycles), nominal 40.0 ng/mL
[17] = Thaw/freeze (3 cycles), nominal 400.0 ng/mL
[18] = co-administration of high-fat meal
[19] = with rifampicin (potent CYP3A inducer)
[20] = Sprague-Dawley, rat, plasma, male rats, oral 2 mg/kg suspension, fasted, mean ± SD
[21] = rats, literature value higher than present work
[22] = refrigerated temperature (2–8 °C) for 10 days
[23] = room temperature (23–25 °C) for 6 h

- Stability, Accuracy (%) [5, 11]: 89.0%
- Stability, measured conc. Mean ± SD [5, 11]: 35.6 ± 2.69 ng/mL
- Stability, Accuracy (%) [5, 12]: 90.1%
- Stability, measured conc. Mean ± SD [5, 12]: 360.36 ± 11.52 ng/mL
- Stability, measured conc. Mean ± SD ([5]; Bench top (6 h), nominal 40.0 ng/mL): 34.61 ± 3.03 ng/mL
- Stability, Accuracy (%) [5, 13]: 85.8%
- Stability, measured conc. Mean ± SD [5, 13]: 343.27 ± 44.76 ng/mL
- Stability, Accuracy (%) [5, 14]: 86.6%
- Stability, measured conc. Mean ± SD [5, 14]: 34.63 ± 4.63 ng/mL
- Stability, Accuracy (%) [5, 15]: 87.64%
- Stability, measured conc. Mean ± SD [5, 15]: 350.56 ± 28.53 ng/mL
- Stability, Accuracy (%) [5, 16]: 85.1%
- Stability, measured conc. Mean ± SD [5, 16]: 34.09 ± 3.99 ng/mL
- Stability, Accuracy (%) [5, 17]: 86.4%
- Stability, measured conc. Mean ± SD [5, 17]: 345.73 ± 39.84 ng/mL
- AUC(0-inf) [8, 20]: 223 ± 107 ng·h/mL
- Cmax [8, 20]: 129 ± 91.4 ng/mL
- MRT [8, 20]: 3.3 ± 0.78 h
- half-life [8, 20]: 2.24 ± 0.43 h
- AUC(0-t) ([8]; Sprague-Dawley, rat, plasma, male rats, oral 2 mg/kg suspension, fasted, mean ± SD, read-out: AUC0-11): 205 ± 101 ng·h/mL
- Tmax ([8]; Sprague-Dawley, rat, plasma, male rats, oral 2 mg/kg suspension, fasted, median): 0.5 h
- Difference in AUC, value reported by Veeraraghavan et al. versus present work [8, 21]: 4.3 fold
- Difference in Cmax, value reported by Veeraraghavan et al. versus present work [8, 21]: 5 fold
- Stability of working solution [9, 22]: stable
- Stability of working solution [9, 23]: stable
SMILES: CCS(=O)(=O)N1CC(CC#N)(n2cc(-c3ncnc4[nH]ccc34)cn2)C1 [baricitinib, Baricitinib]
- Time to peak plasma concentrations ([1]; after oral administration): approximately 1 h
- Oral bioavailability [1]: 79%
- Bound to plasma proteins ([1]; mainly albumin): about 50%
- Metabolism by CYP3A4 (CYP3A4 enzyme): primarily metabolized
- Embryotoxicity and teratogenicity [2]: embryotoxicity, teratogenicity, and adverse effect on bone development in utero
- Substrate of MATE2-K [3]: substrate
- LDL-C and HDL-C levels [4]: stable dose-response increase
- Infection risk ([4]; particularly for herpes zoster): elevates infection risk
- Safety and tolerability ([4]; patients with moderate to severe RA treated for 24 weeks): safe and well tolerated
- Substrate of BCRP [6]: substrate
- Delay in tmax [7, 18]: 3 h
- Effect on AUC [7, 18]: no effect
- Reduction of Cmax [7, 18]: about 29%
- Change of clearance ([7]; with an inhibitor of the transporter OAT3): reduced
- Effect on baricitinib pharmacokinetics ([7]; with fluconazole (CYP2C19/CYP2C9/CYP3A inhibitor)): did not significantly affect
- Effect on baricitinib pharmacokinetics ([7]; with ketoconazole (CYP3A inhibitor)): did not significantly affect
- Change of Cmax (rate of absorption) ([7]; with probenecid): not significantly increased
- Potentiation of AUC0-inf ([7]; with probenecid): twofold
- Renal clearance decreased to ([7]; with probenecid): 69%
- Change of AUC [7, 19]: decreased
- Change of Cmax [7, 19]: without affecting
- Substrate of P-glycoprotein (Pgp) (P-glycoprotein (Pgp)): substrate
- Substrate of OAT3 [10]: substrate

- Stability of working solution [9, 22]: stable
- Stability of working solution [9, 23]: stable
SMILES: CCCCC1=NC2(CCCC2)C(=O)N1Cc1ccc(-c2ccccc2-c2nnn[nH]2)cc1 [IS, irbesartan]
